Patent US12600732B2, “Bifunctional compounds for degrading BTK via ubiquitin proteosome pathway” (NURIX THERAPEUTICS, INC., priority 2019, dated 2026)

Columns and labels:
[1] = tested on: B cell receptor (BCR) signaling; experiment: B cell activation assay (flow cytometry), mouse B cells; assay type: cell-based; details: treatment 4 h, IgM stimulation 18 h
Method in brief: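 Compound was present throughout BCR stimulation. Live single lymphocytes were gated into CD20+CD3− B cells and CD3+CD20− T cells by flow cytometry. Geometric MFI of CD86 and CD69 was measured per population, with unstimulated samples defining baseline activation.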

BTK [2] = molecular target: T1, BTK (Mus musculus, UniProt P35991); experiment: In vivo degradation of BTK in mouse PD experiments with oral dosing
T1 construct: from tissue; host or cells: mouse blood B cells / splenocytes (CD-1 or BALB/c)
T1 sequence (P35991 whole entry): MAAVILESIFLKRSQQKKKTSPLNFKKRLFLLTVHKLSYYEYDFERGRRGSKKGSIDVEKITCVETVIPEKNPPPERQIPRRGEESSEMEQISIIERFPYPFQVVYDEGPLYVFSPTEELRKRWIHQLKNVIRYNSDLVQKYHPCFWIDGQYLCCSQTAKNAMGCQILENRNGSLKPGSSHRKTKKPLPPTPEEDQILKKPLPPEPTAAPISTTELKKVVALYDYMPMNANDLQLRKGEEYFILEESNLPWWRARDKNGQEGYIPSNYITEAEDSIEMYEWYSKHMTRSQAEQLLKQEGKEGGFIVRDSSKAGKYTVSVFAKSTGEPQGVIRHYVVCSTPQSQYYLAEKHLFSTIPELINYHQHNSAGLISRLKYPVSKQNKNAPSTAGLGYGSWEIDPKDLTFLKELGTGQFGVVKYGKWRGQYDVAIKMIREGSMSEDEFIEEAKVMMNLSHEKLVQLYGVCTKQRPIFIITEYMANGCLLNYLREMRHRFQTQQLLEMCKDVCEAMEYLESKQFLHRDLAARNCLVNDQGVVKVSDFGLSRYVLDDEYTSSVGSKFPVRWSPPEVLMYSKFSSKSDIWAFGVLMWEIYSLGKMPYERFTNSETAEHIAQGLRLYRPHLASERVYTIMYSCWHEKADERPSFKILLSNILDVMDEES
Method in brief: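 CD-1 or BALB/c mice dosed by oral gavage, screens at 90 mg/kg for 6 h, later at lower doses/longer times. Blood or splenocyte BTK measured by intracellular flow cytometry (or HTRF); % degradation from B-cell minus T-cell BTK geometric MFI, relative to vehicle.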

[3] = tested on: B cell receptor (BCR) signaling; experiment: B cell activation assay (flow cytometry), human B cells; assay type: cell-based; details: treatment 4 h, IgM stimulation 18 h
Protocol: Compound was present throughout the stimulation. Cells were stained with Live/Dead dye (Fisher L34976) and then fluorophore-conjugated antibodies against CD20 (Biolegend 302330), CD3 (BD Pharmingen 557705), CD86 (Biolegend 305416) and CD69 (Biolegend 310906). Stained cells were fixed in PFA and run on an Attune N×T Acoustic Focusing Flow Cytometer (Thermo-Fisher A29004), and data was analyzed using FlowJo (v10.5.3) and GraphPad Prism (v7.00) software. Single live lymphocytes were gated for B cells (CD20+CD3−) and T cells (CD3+CD20−), and the geometric mean fluorescence intensity (MFI) of CD86 and CD69 was calculated for each population. The MFI of the unstimulated sample was used to quantify baseline activation.
This example evaluates whether CTM treatment affects B cell receptor (BCR) signaling. BTK is activated downstream of the B cell receptor and leads to upregulation of activation markers CD86 and CD69 on the surface of B cells.

primary human T cells = experiment: T cell activation assay, CD25 and CD69 staining (flow cytometry); assay type: cell-based; details: for CD25 Staining Anti-CD3/Anti-CD28 Stimulation / CD69 Staining Anti-CD3/Anti-CD28 Stimulation: fold-change of response relative to baseline; for expression of CD25 and CD69 compared to baseline (anti-CD3/anti-CD28 stimulation alone): primary human T cells
Method in brief: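 Primary human T cells stimulated via TCR with anti-CD3/anti-CD28 in the presence of test compound. IL-2 secretion measured by ELISA; surface CD25 and CD69 by flow cytometry. Values are fold-change versus anti-CD3/anti-CD28 stimulation without compound.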

Rec-1 cells = experiment: Cell viability assay (CellTiter-Glo), Rec-1 cells; assay type: cell-based; details: for EC50: Homo sapiens, Rec1, treatment time 72 h; for EMAX (% viable cells): treatment time 72 h
Text: This example evaluates effects of CTM-mediated degradation on cell viability. […] Mino and Rec-1 are models of Mantle Cell Lymphoma, which is sensitive to IMiDs.

Aiolos = experiment: Non-human primate (cyno) DRF PD, Aiolos remaining in T cells; assay type: in vivo; details: for % Aiolos Remaining in T cells: blood, 24 h after previous dose
Protocol: This example evaluates potency and tolerability of BTK CTMs following multiple, consecutive days of dosing and examines potency of compounds for BTK and Aiolos degradation. The data in the table below is from a study in which animals were dosed daily with the designated oral dose. Analysis for BTK and Aiolos levels was performed twenty-four hours following the previous dose.

BTK [4] = molecular target: T1, BTK; experiment: Mouse DRF PD, BTK remaining in B cells; assay type: in vivo; details: blood, 24 h after previous dose
Protocol: A method of determining the pharmacodynamic profile of BTK degraders was performed by dosing either CD-1 or BALB/c mice with CTM. The CTM was prepared in a suitable formulation and was administered via oral gavage (PO) at a suitable dose level and frequency as informed by prior pharmacokinetic and tolerability studies. Following administration of CTM, BTK levels in blood or splenocytes are measured using flow cytometry or HTRF. For assessment of BTK levels via flow cytometry, either whole blood or splenocytes were first treated with ACK RBC lysis buffer to facilitate lysing of red blood cells. Remaining cells were then stained with fluorophore-conjugated antibodies against CD45, TCR beta and CD45R (B220). Cell pellets were washed with 1×PBS, fixed, and permeabilized for twenty-four hours with Foxp3/Transcription Factor Fixation/Permeabilization Kit. Cells were then stained intracellularly with unconjugated BTK antibody and detected with a fluorophore-conjugated secondary antibody. Stained cells were run on an Attune N×T Acoustic Focusing Flow Cytometer (Thermo-Fisher A29004), and data was analyzed using FlowJo (v10.5.3) and GraphPad Prism (v7.00) software. Lymphocytes were gated for B cells defined as CD45+ TCR beta−B220+ and T cells as CD45+ TCR beta+B220−. The BTK geometric mean fluorescence intensity (MFI) was calculated for B and T cells. Percent BTK degradation for each compound-treated sample was calculated using the equation described below: % Degradation=100*(Treated sample B cell BTK MFI-treated sample T cell BTK MFI)/Vehicle B cell BTK MFI-Vehicle T cell BTK MFI)
This example evaluates potency and tolerability of BTK CTMs following multiple, consecutive days of dosing and evaluates potency of compounds for BTK degradation.
The data in the table below is from a study in which animals were dosed daily with the designated oral dose. Analysis for BTK levels was performed twenty-four hours following the previous dose.

[5] = Compound plasma exposure in cyno DRF study; assay type: in vivo; details: cynomolgus monkey, po
[6] = oral dose 30 mg/kg, 24 h, splenocytes, HTRF
[7] = 10 mg/kg PO daily, 1 day of dosing
[8] = 10 mg/kg PO daily, 14 days of dosing
[9] = 30 mg/kg PO daily, 1 day of dosing
[10] = 30 mg/kg PO daily, 14 days of dosing
[11] = 100 mg/kg PO daily, 1 day of dosing
[12] = 100 mg/kg PO daily, 14 days of dosing
[13] = 300 mg/kg PO daily, 1 day of dosing
[14] = 300 mg/kg PO daily, 14 days of dosing
[15] = oral dose 10 mg/kg, 24 h, splenocytes, HTRF
[16] = oral dose 30 mg/kg, 24 h, blood, flow cytometry
[17] = 10 mg/kg, 10 mg/kg PO, 1 day of dosing
[18] = 30 mg/kg, 30 mg/kg PO, 1 day of dosing
[19] = 100 mg/kg, 100 mg/kg PO, 1 day of dosing
[20] = 100 mg/kg, 100 mg/kg PO, 14 days of dosing

Compound | EC50 ([1]; read-out: CD69 EC50) [nM] | EC50 ([1]; read-out: CD86 EC50) [nM] | % BTK Remaining (BTK [2]; [6]) [%] | EC50 ([3]; read-out: CD69 EC50) [nM] | EC50 ([3]; read-out: CD86 EC50) [nM] | CD25 Staining Anti-CD3/Anti-CD28 Stimulation (primary human T cells; 1.4 nM) | CD69 Staining Anti-CD3/Anti-CD28 Stimulation (primary human T cells; 1.4 nM) | CD25 Staining Anti-CD3/Anti-CD28 Stimulation (primary human T cells; 37 nM) | CD69 Staining Anti-CD3/Anti-CD28 Stimulation (primary human T cells; 37 nM) | CD25 Staining Anti-CD3/Anti-CD28 Stimulation (primary human T cells; 333 nM) | CD69 Staining Anti-CD3/Anti-CD28 Stimulation (primary human T cells; 333 nM) | EC50 (Rec-1 cells) [nM] | EMAX (% viable cells) (Rec-1 cells) [%] | % Aiolos Remaining in T cells (Aiolos; [7]) [%] | % Aiolos Remaining in T cells (Aiolos; [8]) [%] | % Aiolos Remaining in T cells (Aiolos; [9]) [%] | % Aiolos Remaining in T cells (Aiolos; [10]) [%] | % Aiolos Remaining in T cells (Aiolos; [11]) [%] | % Aiolos Remaining in T cells (Aiolos; [12]) [%] | % BTK Remaining in B cells (BTK [4]; [9]) [%] | also measured
CN1CCN([C@@H]2CCCN(c3cnc(C(N)=O)c(Nc4ccc(C5CCN(CC6CCN(c7ccc8c(=O)n(C9CCC(=O)NC9=O)ccc8c7)CC6)CC5)cc4)n3)C2)C1=O (some centres unmarked) [Compound 72] | 0.07 | 0.2 | 20 | – | – | – | – | – | – | – | – | – | – | – | – | – | – | – | – | – | –
NC(=O)c1ncc(N2CCCCC2)nc1Nc1ccc(C2CCN(C[C@@H]3CCN(c4ccc5c(c4)C(=O)N(C4CCC(=O)NC4=O)C5=O)C3)CC2)cc1 (some centres unmarked) [Compound 149] | – | – | 8 | 4 | 5 | 1.31 | 1.22 | 1.02 | 0.93 | 0.61 | 0.63 | 0.17 | 24 | 79 | 76 | 74 | 55 | 77 | 43 | 11 | expression of CD25 and CD69 compared to baseline (anti-CD3/anti-CD28 stimulation alone) (primary human T cells): unchanged or decreased levels; Aiolos degradation (Aiolos; after fourteen days of dosing): demonstrated Aiolos degradation; % BTK Remaining in B cells (BTK [4]; [10]): 8%; % BTK Remaining in B cells (BTK [4]; [11]): 10%; % BTK Remaining in B cells (BTK [4]; [12]): 5%; % BTK Remaining in B cells (BTK [4]; [13]): 6%; % BTK Remaining in B cells (BTK [4]; [14]): 2%; % BTK Remaining (BTK [2]; oral dose 10 mg/kg, 24 h, blood, flow cytometry): 27%; % BTK Remaining (BTK [2]; [15]): 21%; % BTK Remaining (BTK [2]; [16]): 11%; % BTK Remaining (BTK [2]; oral dose 90 mg/kg, 24 h, blood, flow cytometry): 1%; % BTK Remaining (BTK [2]; oral dose 90 mg/kg, 24 h, splenocytes, HTRF): 1%; AUC [5, 17]: 0.386 µM·h; AUC [5, 18]: 0.72 µM·h; Cmax [5, 19]: 76 nM; AUC [5, 20]: 2.66 µM·h
CN1CCN([C@@H]2CCCN(c3cnc(C(N)=O)c(Nc4ccc(C5CCN(CC6CCN(c7ccc(-c8nn(C9CCC(=O)NC9=O)c(=O)n8C)cc7)CC6)CC5)cc4)n3)C2)C1=O (some centres unmarked) [Compound 121] | 0.5 | 0.9 | 33 | – | – | – | – | – | – | – | – | – | – | – | – | – | – | – | – | – | % BTK Remaining (BTK [2]; oral dose 0.3 mg/kg, 24 h, blood, flow cytometry): 102%; % BTK Remaining (BTK [2]; oral dose 3 mg/kg, 24 h, blood, flow cytometry): 68%; % BTK Remaining (BTK [2]; [16]): 28%
CN1CCN([C@@H]2CCCN(c3cnc(C(N)=O)c(Nc4ccc(C5CCN(C[C@H]6CCN(c7ccc8c(c7)C(=O)N(C7CCC(=O)NC7=O)C8=O)C6)CC5)cc4)n3)C2)C1=O (some centres unmarked) [Compound 44] | 0.2 | 0.4 | 23 | 0.5 | 0.5 | 1.25 | 1.21 | 0.86 | 0.85 | 0.52 | 0.60 | 0.82 | 37 | 96 | 71 | 99 | 69 | 96 | 63 | 16 | expression of CD25 and CD69 compared to baseline (anti-CD3/anti-CD28 stimulation alone) (primary human T cells): unchanged or decreased levels; % BTK Remaining in B cells (BTK [4]; [10]): 16%; % BTK Remaining in B cells (BTK [4]; [11]): 10%; % BTK Remaining in B cells (BTK [4]; [12]): 11%; % BTK Remaining in B cells (BTK [4]; [13]): 8%; % BTK Remaining in B cells (BTK [4]; [14]): 10%; % BTK Remaining (BTK [2]; dose 1(IV) mg/kg, 24 h, splenocytes, HTRF): 58%; % BTK Remaining (BTK [2]; oral dose 1 mg/kg, 6 h, splenocytes, HTRF): 58%; % BTK Remaining (BTK [2]; oral dose 3 mg/kg, 6 h, splenocytes, HTRF): 32%; % BTK Remaining (BTK [2]; oral dose 10 mg/kg, 6 h, splenocytes, HTRF): 11%; % BTK Remaining (BTK [2]; [15]): 34%; % BTK Remaining (BTK [2]; oral dose 30 mg/kg, 6 h, splenocytes, HTRF): 4%; % BTK Remaining (BTK [2]; oral dose 90 mg/kg, 6 h, splenocytes, HTRF): 4%; AUC [5, 17]: 0.148 µM·h; AUC [5, 18]: 0.268 µM·h; Cmax [5, 19]: 22.6 nM; AUC [5, 20]: 1.52 µM·h
CN1CCN([C@H]2CCCN(c3cnc(C(N)=O)c(Nc4ccc(C5CCN(CC6CCN(c7ccc(C(=O)NC8CCC(=O)NC8=O)nc7)CC6)CC5)cc4)n3)C2)C1=O (some centres unmarked) [Compound 130] | – | – | – | 0.4 | 0.5 | 1.02 | 1.00 | 0.98 | 0.96 | 0.55 | 0.55 | 155 | 63 | 102 | 96 | 98 | 108 | 106 | 99 | 11 | % BTK Remaining in B cells (BTK [4]; [10]): 6%; % BTK Remaining in B cells (BTK [4]; [11]): 3%; % BTK Remaining in B cells (BTK [4]; [12]): 2%; % BTK Remaining in B cells (BTK [4]; [13]): 2%; % BTK Remaining in B cells (BTK [4]; [14]): <1%; % BTK Remaining (BTK [2]; [16]): 5%; AUC [5, 17]: 0.172 µM·h; AUC [5, 18]: 0.582 µM·h; Cmax [5, 19]: 96 nM; AUC [5, 20]: 3.84 µM·h
